Experimental data: EP0550775A1, “Cephalosporin derivatives” (F. HOFFMANN-LA ROCHE AG, priority 1992, dated 1993)
Where a name gives a salt, the structure may show the parent alone.

Experiments:
[1] = Chemical stability (half-life) in phosphate buffer by HPLC; assay type: physicochemical; conditions: pH 7.4, phosphate buffer (pH7.40; 37°C)
Procedure: Chemical stability (half-life) in phosphate buffer (pH 7.40; 37°C) of some of the compounds of the present invention was determined using high performance liquid chromatography (HPLC). A Hamilton PRP-1 (250 mm x 4.1 mm) column was used with UV detection at 280 nm. The mobile phase used consisted of a 0.01 M solution of tetradecyltrimethylammonium bromide in a mixture of 70% 0.072M phosphate buffer (pH 8.2) and 30% acetonitrile. In some experiments, minor adjustments to the pH and in the acetonitrile concentration were made to improve resolutions.

[2] = tested on: E. coli TEM-1; experiment: microbe, parasite or virus in culture; assay type: cell-based; conditions: Escherichia coli, agar dilution, read-out: MIC
Procedure: (§1) In vitro activity of the compounds of the present invention was measured by the Minimum Inhibitory Concentration (MIC) in micrograms/ml utilizing the Agar Dilution Method, which is well known in the art, against a variety of gram-negative and gram-positive organisms.

[3] = tested on: E. coli ATCC 25922; experiment: microbe, parasite or virus in culture; assay type: cell-based; conditions: Escherichia coli, ATCC25922, agar dilution, read-out: MIC
Procedure: as §1

[4] = tested on: Enter. cloacae P99; experiment: microbe, parasite or virus in culture; assay type: cell-based; conditions: Enterobacter cloacae, agar dilution, read-out: MIC
Procedure: as §1

[5] = tested on: E. coli 257; experiment: microbe, parasite or virus in culture; assay type: cell-based; conditions: Escherichia coli, agar dilution, read-out: MIC
Procedure: as §1

[6] = tested on: Ser. marcescens 1071; experiment: In vitro MIC, Agar Dilution Method; assay type: cell-based; conditions: Serratia marcescens; Ser. marcescens 1071; agar dilution; read-out: MIC
Procedure: as §1

[7] = tested on: Ser. marcescens SM; experiment: In vitro MIC, Agar Dilution Method; assay type: cell-based; conditions: Serratia marcescens, read-out: MIC
Procedure: as §1

[8] = tested on: Ps. aeruginosa ATCC 27853; experiment: In vitro MIC, Agar Dilution Method; assay type: cell-based; conditions: Pseudomonas aeruginosa, ATCC27853, read-out: MIC
Procedure: as §1

[9] = tested on: Prot. vulgaris 1028 BC; experiment: In vitro MIC, Agar Dilution Method; assay type: cell-based; conditions: Proteus vulgaris, read-out: MIC
Procedure: as §1

[10] = tested on: Ps. aeruginosa 8780; experiment: In vitro MIC, Agar Dilution Method; assay type: cell-based; conditions: Pseudomonas aeruginosa, read-out: MIC
Procedure: as §1

[11] = tested on: Str. faecalis ATCC 29212; experiment: In vitro MIC, Agar Dilution Method; assay type: cell-based; conditions: Enterococcus faecalis, ATCC29212; Str. faecalis ATCC 29212; agar dilution; read-out: MIC
Procedure: as §1

[12] = tested on: Staph. aureus ATCC 29213; experiment: In vitro MIC, Agar Dilution Method; assay type: cell-based; conditions: Staphylococcus aureus, ATCC29213, read-out: MIC
Procedure: as §1

[13] = tested on: Enter. cloacae 5699; experiment: In vitro MIC, Agar Dilution Method; assay type: cell-based; conditions: Enterobacter cloacae; Enter. cloacae 5699; agar dilution; read-out: MIC
Procedure: as §1

[14] = tested on: Prot. mirabilis 90; experiment: In vitro MIC, Agar Dilution Method; assay type: cell-based; conditions: Proteus mirabilis; Prot. mirabilis 90; agar dilution; read-out: MIC
Procedure: as §1

[15] = tested on: Ps. aeruginosa 18SH; experiment: In vitro MIC, Agar Dilution Method; assay type: cell-based; conditions: Pseudomonas aeruginosa, read-out: MIC
Procedure: as §1

[16] = tested on: Prot. vulgaris ATCC 6380; experiment: In vitro MIC, Agar Dilution Method; assay type: cell-based; conditions: Proteus vulgaris, ATCC6380, read-out: MIC
Procedure: as §1

[17] = tested on: Staph. aureus 67; experiment: In vitro MIC, Agar Dilution Method; assay type: cell-based; conditions: Staphylococcus aureus; Staph. aureus 67; agar dilution; read-out: MIC
Procedure: as §1

[18] = tested on: Str. pneumoniae 6301; experiment: In vitro MIC, Agar Dilution Method; assay type: cell-based; conditions: Streptococcus pneumoniae; Str. pneumoniae 6301; agar dilution; read-out: MIC
Procedure: as §1

[19] = tested on: Staph. aureus 753; experiment: In vitro MIC, Agar Dilution Method; assay type: cell-based; conditions: Staphylococcus aureus, read-out: MIC
Procedure: as §1

[20] = tested on: K. pneumoniae A; experiment: In vitro MIC, Agar Dilution Method; assay type: cell-based; conditions: Klebsiella pneumoniae; K. pneumoniae A; agar dilution; read-out: MIC
Procedure: as §1

[21] = tested on: Staph. aureus 1059B; experiment: In vitro MIC, Agar Dilution Method; assay type: cell-based; conditions: Staphylococcus aureus, read-out: MIC
Procedure: as §1

[22] = tested on: Ps. aeruginosa 765; experiment: In vitro MIC, Agar Dilution Method; assay type: cell-based; conditions: Pseudomonas aeruginosa, read-out: MIC
Procedure: as §1

[23] = tested on: Staph. aureus Smith; experiment: In vitro MIC, Agar Dilution Method; assay type: cell-based; conditions: Staphylococcus aureus, read-out: MIC
Procedure: as §1

[24] = tested on: Str. pyogenes 4; experiment: In vitro MIC, Agar Dilution Method; assay type: cell-based; conditions: Streptococcus pyogenes; Str. pyogenes 4; agar dilution; read-out: MIC
Procedure: as §1

[25] = tested on: Ps. aeruginosa 5712; experiment: In vitro MIC, Agar Dilution Method; assay type: cell-based; conditions: Pseudomonas aeruginosa, read-out: MIC
Procedure: as §1

[26] = tested on: Cit. freundi BS-16; experiment: In vitro MIC, Agar Dilution Method; assay type: cell-based; conditions: read-out: MIC
Procedure: as §1

For `CCN1CCN(C(=O)N[C@@H](C(=O)N[C@@H]2C(=O)N3C(C(=O)O)=C(CN4CCN(c5cc6c(cc5F)c(=O)c(C(=O)O)cn6C5CC5)CC4)CS[C@H]23)c2ccc(O)cc2)C(=O)C1=O` [Compound E, [6R-[6α,7β(R)]]-3-[[4-(3-Carboxy-1-cyclopropyl-6-fluoro-1,4-dihydro-4-oxo-7-quinolinyl)-1-piperazinyl]methyl]-7-[[[[(4-ethyl-2,3-dioxo-1-piperazinyl)carbonyl]amino](4-hydroxyphenyl)acetyl]amino]-8-oxo-5-thia-1-azabicyclo[4.2.0]oct-2-ene-2-carboxylic acid trfluoroacetic acid salt], the half-life [1] was 2.5 days, the MIC [2] was 31.3 µg/mL and the MIC [3] was ≤ 15.7 µg/mL. The MIC [4] was ≤ 15.7 µg/mL, the MIC [5] was ≤ 15.7 µg/mL and the MIC [6] was 250 µg/mL. It also gave an MIC [7] of 250 µg/mL, an MIC [8] of 8000 µg/mL and an MIC [9] of 62.5 µg/mL. It also gave an MIC [10] of 8000 µg/mL, an MIC [11] of 16 mg/mL and an MIC [12] of 2000 µg/mL. For the same compound, the MIC [13] was 125 µg/mL, the MIC [14] was 1000 µg/mL and the MIC [15] was 2000 µg/mL. It also gave an MIC [16] of 125 µg/mL, an MIC [17] of 16 mg/mL and an MIC [18] of 125 µg/mL. The MIC [19] was 2000 µg/mL, the MIC [20] was 500 µg/mL and the MIC [21] was 2000 µg/mL. The MIC [22] was 4000 µg/mL, the MIC [23] was 2000 µg/mL and the MIC [24] was 125 µg/mL. For the same compound, the MIC [25] was 32 mg/mL and the MIC [26] was 62.5 µg/mL.
